≈ marks a conversion by molar mass, not a printed value. Where a SMILES comes first, the peptide text is derived from it. Bridges are numbered along the chain shown (N, C = ends). Where no end group is shown, it is not given here.
Assays:
Proteinase-K = Proteinase-K (Parengyodontium album, UniProt P06873); test: Proteinase-K (ProtK) proteolysis stability, Coommassie Blue stained gel; format: in vitro ADME; conditions: 10 μg protein, 2 hours at 37° C.
Description: Proteinase-K (ProtK) was used to assess the stability of OMN6 versus native Cecropin A (CecA) and Bovine Serum Albumin (BSA) (See FIG. 1 A). 10 μg of each protein were incubated with increasing concentrations of between 5-20 ng of ProtK as specified, for 2 hours at 37° C. Samples were boiled at 100° C. for five minutes and separated on 15% acrylamide gel. The gel was then stained with Coommassie Blue and excess dye was removed over-night. […] In lane 2, the CecA band was weaker than the untreated sample band in lane 1. In lane 8, fragments of degraded BSA were detected, evidence of partial degradation.
The same experimental system as described above was used to assess the stability of OMN2, OMN7 and OMN11 against proteolytic degradation by ProtK (see FIG. 1B).

P. aeruginosa BAA-2110 [1] = format: cell-based, Pseudomonas aeruginosa
Description: (§1) In order to determine the MIC values of the peptides, growth and inhibition of various bacteria were monitored after treatment with the peptides of the invention (Table 6).
(§2) E. coli bacteria were cultured with or without OMN6 in increasing concentrations of 0.8-200 μM and with or without Fetal Bovine Serum 10% for 17-20 hours. The growth of the bacteria was continuously monitored via spectrophotometry at 600 nm. As bacterial growth progresses, OD600 nm values rise, and where the growth is inhibited OD600 nm values remain constant.
(§3) The experimental system and parameters described here were used to determine the MIC values of OMN2, OMN6, OMN7 and OMN11 on various bacteria strains (Table 7 and Table 8).

P. aeruginosa BAA-2110 [2] = format: cell-based, Pseudomonas aeruginosa; remark: listed apart in the source
Description: (§4) In order to determine the Minimal Bactericidal Concentration (MBC) values of the peptides, colony formation of various bacteria strains was monitored and determined after treatment with the peptides of the invention. Multi-Drug Resistant A. baumannii bacteria were cultured with or without OMN6 in increasing concentrations, as is detailed in FIG. 6 and Example 6. Immediately afterwards, samples of each experimental group were diluted to 1×10^4 to 1×10^6 as necessary, and further, the samples were plated on appropriate medium-agar plates. All the plates were incubated at 37° C. for 24-48 hours. Colonies were counted and CFU/ml in the original sample, prior to plating, were calculated and determined. An example of the plates, after incubation, is presented in FIG. 7 where the plate on the left side of the image is the CTRL sample treated with DDW and in the right side of the image increasing concentrations of OMN6 are presented, as specified therein.
(§5) The experimental system and parameters described here were used to determine the MBC values of OMN2, OMN6, OMN7 and OMN11 on various bacteria strains with and without the supplementation of 10% FBS (Table 6 and Table 8).

E. coli ESBL BAA-198 = format: cell-based, Escherichia coli
Description: (§6) In order to determine the MIC values of the peptides, growth and inhibition of various bacteria were monitored after treatment with the peptides of the invention (Table B). E. coli, K. pneumoniae, P. aeruginosa and Salmonella bacteria were cultured at 37° C. and at 5×10^6 CFU/ml in a standard 96-well-plate, in Mueller Hinton broth. […] The growth of the bacteria was continuously monitored via spectrophotometry at a wave-length of 625 nm. As bacterial growth progresses, Optical density at 625 nm (OD625 nm) values increase, and where the bacterial growth is inhibited, OD625 nm values remain constant. The experimental system and parameters described herein were used to determine the MIC values of OMN3, OMN5, OMN8 and OMN9 on various bacteria strains (Table B). Using the standard MHB MIC testing for antibiotic activity

[3] = test system: E. coli Sens. 25922 QC strain; format: cell-based, Escherichia coli
Description: as §6

E. coli CR BAA-2452 = format: cell-based, Escherichia coli
Description: as §6

E. coli strains = format: cell-based
Description: as §6

K. pneu NDM1 BAA-2473 = format: cell-based, Klebsiella pneumoniae
Description: as §6

P. aeruginosa BAA-2795 = format: cell-based, Pseudomonas aeruginosa
Description: as §6

E. coli Sens. 25922 [4] = format: cell-based, Escherichia coli
Description: as §4, §5

E. coli Sens. 25922 [5] = format: cell-based, Escherichia coli; conditions: Sens. 25922
Description: as §1, §2, §3

Chain of Proteinase-K (P06873 106-384, species assumed): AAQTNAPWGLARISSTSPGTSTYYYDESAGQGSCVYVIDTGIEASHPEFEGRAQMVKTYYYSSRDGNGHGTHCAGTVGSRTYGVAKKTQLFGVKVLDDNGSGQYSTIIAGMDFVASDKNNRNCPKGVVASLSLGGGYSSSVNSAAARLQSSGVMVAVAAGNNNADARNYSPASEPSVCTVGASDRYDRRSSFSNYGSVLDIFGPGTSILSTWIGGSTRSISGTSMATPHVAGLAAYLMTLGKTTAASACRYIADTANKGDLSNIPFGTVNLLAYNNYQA

KWKLFKKIEKVGQNIRDGIIKAGPAVAVVGQATQIAK-NH2 (C-terminus assumed) [CecA, reference compound]
Degradation by ProtK (gel band) (Proteinase-K; 5 ng ProtK): partially degrade | Degradation by ProtK (gel band) (Proteinase-K; 20 ng ProtK): completely degrade

CC[C@H](C)[C@H](NC(=O)CNC(=O)[C@H](CC(=O)O)NC(=O)[C@H](CCCNC(=N)N)NC(=O)[C@@H](NC(=O)[C@H](CC(N)=O)NC(=O)[C@H](CCC(N)=O)NC(=O)CNC(=O)[C@@H](NC(=O)[C@H](CCCCN)NC(=O)[C@H](CCC(=O)O)NC(=O)[C@@H](NC(=O)[C@H](CCCCN)NC(=O)[C@H](CCCCN)NC(=O)[C@H](Cc1ccccc1)NC(=O)[C@@H](NC(=O)[C@H](CCCCN)NC(=O)[C@H](Cc1c[nH]c2ccccc12)NC(=O)[C@H](CCCNC(=N)N)NC(=O)[C@H](CS)NC(=O)[C@@H](N)CCSC)[C@@H](C)CC)[C@@H](C)CC)C(C)C)[C@@H](C)CC)C(=O)N[C@H](C(=O)N[C@@H](CCCCN)C(=O)N[C@@H](C)C(=O)NCC(=O)N1CCC[C@H]1C(=O)N[C@@H](C)C(=O)N[C@H](C(=O)N[C@@H](C)C(=O)N[C@H](C(=O)N[C@H](C(=O)NCC(=O)N[C@@H](CCC(N)=O)C(=O)N[C@@H](C)C(=O)N[C@@H](C)C(=O)N[C@H](C(=O)N[C@H](C(=O)N[C@@H](CS)C(N)=O)[C@@H](C)CC)[C@@H](C)O)C(C)C)C(C)C)C(C)C)C(C)C [OMN7] (H-MCRWKIFKKIEKVGQNIRDGIVKAGPAVAVVGQAATIC-NH2; N-terminus and C-terminus assumed)
MIC (P. aeruginosa BAA-2110 [1]): 50 µM (≈ 205 µg/mL) | MBC (P. aeruginosa BAA-2110 [2]): 50 µM (≈ 205 µg/mL)

CC[C@H](C)[C@@H]1NC(=O)CNC(=O)[C@H](CC(=O)O)NC(=O)[C@H](CCCNC(=N)N)NC(=O)[C@H]([C@@H](C)CC)NC(=O)[C@H](CC(N)=O)NC(=O)[C@H](CCCNC(=N)N)NC(=O)CNC(=O)[C@H](CCSC)NC(=O)[C@H](CCCCN)NC(=O)[C@H](CCC(=O)O)NC(=O)[C@H]([C@@H](C)CC)NC(=O)[C@H](CCCCN)NC(=O)[C@H](CCCCN)NC(=O)[C@H](Cc2ccccc2)NC(=O)[C@H]([C@@H](C)CC)NC(=O)[C@H](CCCCN)NC(=O)[C@H](Cc2c[nH]c3ccccc23)NC(=O)[C@H](CCCNC(=N)N)NC(=O)[C@@H](NC(=O)[C@@H](N)CCSC)CSSC[C@@H](C(=O)O)NC(=O)[C@H]([C@@H](C)CC)NC(=O)[C@H](C)NC(=O)[C@H](CCCCN)NC(=O)[C@H](C)NC(=O)[C@H](CO)NC(=O)CNC(=O)[C@H](CC(C)C)NC(=O)[C@H](C(C)C)NC(=O)[C@H](CCC(=O)O)NC(=O)[C@H]([C@@H](C)CC)NC(=O)[C@H](C)NC(=O)[C@@H]2CCCN2C(=O)CNC(=O)[C@H](C)NC(=O)[C@H](C)NC(=O)[C@H](C(C)C)NC1=O [OMN8] (H-MCRWKIFKKIEKMGRNIRDGIVAAGPAIEVLGSAKAIC-OH; disulfide 2-38; N-terminus and C-terminus assumed)
MIC (E. coli ESBL BAA-198): 16 µg/mL (≈ 3.83 µM) | MIC [3]: 32 µg/mL (≈ 7.67 µM) | MIC (E. coli CR BAA-2452): 32 µg/mL (≈ 7.67 µM) | MIC for E. coli strains (E. coli strains): 16 to 32 µg/mL | MIC (K. pneu NDM1 BAA-2473): 64 µg/mL (≈ 15.3 µM)

Bovine Serum Albumin [BSA, reference compound]
Degradation by ProtK (gel band) (Proteinase-K; 5 ng ProtK): partially degrade | Degradation by ProtK (gel band) (Proteinase-K; 20 ng ProtK): completely degrade

CC[C@H](C)[C@@H]1NC(=O)[C@H](C)NC(=O)[C@H](CC(=O)O)NC(=O)[C@H](CCCNC(=N)N)NC(=O)[C@H](C(C)C)NC(=O)[C@H](CCCNC(=N)N)NC(=O)[C@H](CCC(N)=O)NC(=O)CNC(=O)[C@H](C)NC(=O)[C@H](CCCNC(=N)N)NC(=O)[C@H](CCC(=O)O)NC(=O)[C@H](CC(C)C)NC(=O)[C@H](CCC(=O)O)NC(=O)[C@H](CCCCN)NC(=O)[C@H](Cc2ccccc2)NC(=O)[C@@H]2CCCN2C(=O)[C@H](CC(N)=O)NC(=O)[C@H](Cc2c[nH]c3ccccc23)NC(=O)[C@@H](NC(=O)[C@@H](N)CCSC)CSSC[C@@H](C(=O)O)NC(=O)[C@H](CCCCN)NC(=O)[C@H](C)NC(=O)[C@H](CC(C)C)NC(=O)[C@H](C)NC(=O)[C@H]([C@@H](C)O)NC(=O)[C@H](C)NC(=O)[C@H](CCC(N)=O)NC(=O)[C@H](C)NC(=O)[C@H](C(C)C)NC(=O)[C@H]([C@@H](C)O)NC(=O)[C@H](C)NC(=O)[C@H](C(C)C)NC(=O)[C@H](C)NC(=O)[C@@H]2CCCN2C(=O)CNC(=O)[C@H](C)NC(=O)[C@H](CO)NC(=O)[C@H]([C@@H](C)CC)NC1=O [OMN5] (H-MCWNPFKELERAGQRVRDAIISAGPAVATVAQATALAKC-OH; disulfide 2-39; N-terminus and C-terminus assumed)
MIC (P. aeruginosa BAA-2795): 256 µg/mL (≈ 61.8 µM) | MIC for E. coli strains (E. coli strains): above 256 μg/mL

CC[C@H](C)[C@H](NC(=O)CNC(=O)[C@H](CCC(=O)O)NC(=O)[C@H](CO)NC(=O)[C@@H](NC(=O)[C@H](CCCNC(=N)N)NC(=O)[C@H](CCCCN)NC(=O)[C@H](CCCCN)NC(=O)[C@H](C)NC(=O)[C@H](CO)NC(=O)[C@H](CC(N)=O)NC(=O)[C@H](CCC(=O)O)NC(=O)[C@H](CC(C)C)NC(=O)[C@H](CCCCN)NC(=O)[C@H](CCCCN)NC(=O)[C@H](C)NC(=O)[C@@H](NC(=O)[C@H](CCCCN)NC(=O)[C@H](CO)NC(=O)[C@H](CC(C)C)NC(=O)[C@H](Cc1c[nH]c2ccccc12)NC(=O)[C@H](CO)NC(=O)[C@H](CS)NC(=O)[C@@H](N)CCSC)[C@@H](C)O)[C@@H](C)CC)C(=O)N[C@@H](C)C(=O)N[C@H](C(=O)N[C@@H](C)C(=O)N[C@H](C(=O)N[C@@H](CCC(N)=O)C(=O)NCC(=O)NCC(=O)N1CCC[C@H]1C(=O)N[C@@H](CCCNC(=N)N)C(=O)N[C@@H](CS)C(N)=O)[C@@H](C)CC)[C@@H](C)CC [OMN11] (H-MCSWLSKTAKKLENSAKKRISEGIAIAIQGGPRC-NH2; N-terminus and C-terminus assumed)
MIC (P. aeruginosa BAA-2110 [1]): 40 µM (≈ 147 µg/mL) | MBC (E. coli Sens. 25922 [4]): 25 µM (≈ 91.9 µg/mL) | MIC (E. coli Sens. 25922 [5]): 25 µM (≈ 91.9 µg/mL) | MBC (P. aeruginosa BAA-2110 [2]): 40 µM (≈ 147 µg/mL)

CC[C@H](C)[C@@H]1NC(=O)[C@H](C)NC(=O)[C@H](C)NC(=O)[C@H](C)NC(=O)[C@H](CCC(N)=O)NC(=O)CNC(=O)[C@H](C(C)C)NC(=O)[C@H]([C@@H](C)O)NC(=O)[C@H](C)NC(=O)[C@H](C(C)C)NC(=O)[C@H](C)NC(=O)[C@@H]2CCCN2C(=O)[C@H](C)NC(=O)[C@H](C)NC(=O)[C@H](CO)NC(=O)[C@H]([C@@H](C)O)NC(=O)[C@H](C(C)C)NC(=O)[C@H](C)NC(=O)[C@H](CC(=O)O)NC(=O)[C@H](CCCNC(=N)N)NC(=O)[C@H](C(C)C)NC(=O)[C@H](CCCNC(=N)N)NC(=O)[C@H](CCC(N)=O)NC(=O)CNC(=O)[C@H](C)NC(=O)[C@H](CCCNC(=N)N)NC(=O)[C@H](CCC(=O)O)NC(=O)[C@H](CC(C)C)NC(=O)[C@H](CCC(=O)O)NC(=O)[C@H](CCCCN)NC(=O)[C@H](Cc2ccccc2)NC(=O)[C@@H]2CCCN2C(=O)[C@H](CC(N)=O)NC(=O)[C@H](Cc2c[nH]c3ccccc23)NC(=O)[C@@H](NC(=O)[C@@H](N)CCSC)CSSC[C@@H](C(=O)O)NC(=O)[C@H](CCCNC(=N)N)NC(=O)[C@H](C)NC1=O [OMN3] (H-MCWNPFKELERAGQRVRDAVTSAAPAVATVGQAAAIARC-OH; disulfide 2-39; N-terminus and C-terminus assumed)
MIC (P. aeruginosa BAA-2795): 256 µg/mL (≈ 62.2 µM) | MIC for E. coli strains (E. coli strains): above 256 μg/mL
